Data: patent US20250019357A1, “[…] MORPHIC FORMS AND MIXTURES FOR THE TREATMENT OF MENTAL DISORDERS OR MENTAL ENHANCEMENT” (TACTOGEN INC, priority 2021, published 2025)
Structures can show the parent of a compound that is named as a salt.

Legend:
5-HT1BR = 5-HT1BR (Homo sapiens (Human), UniProt P28222); format: cell-based; conditions: 5-HT1BR agonist curve
SERT [1] = target: T1, SERT (Rattus norvegicus (Rat), UniProt P31652); assay: In vitro rat synaptosome serotonin uptake inhibition assay (Examples 9, 58); format: biochemical; conditions: rat synaptosomes
Description: FIG. 7A is a graph showing results from an in vitro rat synaptosome serotonin uptake inhibition assay. […] Details and procedural information for this assay are described in Example 9. The x-axis is the log [dose] concentration measured in molar and the y-axis is the [^3H]-labeled 5-HT reuptake measured in percent.
FIG. 176 is a graph showing results from an in vitro rat synaptosome serotonin uptake inhibition assay. […] Details and procedural information for this assay are described in Example 58. The x-axis the log [dose] concentration is measured in Molar units and the y-axis is the [^3H]-labeled 5-HT reuptake measured in percent of maximum produced by the comparison releaser.

SERT [2] = target: T1, SERT; assay: In vitro rat synaptosome serotonin release (efflux) assay (Examples 9, 58); format: biochemical; conditions: rat synaptosomes
Description: FIG. 7B is a graph showing results from an in vitro rat synaptosome serotonin release assay. […] Details and procedural information for this assay are described in Example 9. The x-axis is the log [dose] concentration measured in molar and the y-axis is the [^3H]-labeled 5-HT release measured in percent.
FIG. 177 is a graph showing results from an in vitro rat synaptosome serotonin release assay. […] Details and procedural information for this assay are described in Example 58. The x-axis the log [dose] concentration measured in molar and the y-axis is the [^3H]-labeled 5-HT release measured in percent.

[3] = target: human 5-HT transporter (hSERT) (Homo sapiens (Human), UniProt P31645); assay: Human serotonin transporter  assay ([3H]imipramine radioligand, CHO cells); format: binding
Protocol: EXAMPLE 8: Human Serotonin Transporter (SERT, SLC6A4) Functional Antagonist Uptake Assay
Benzofuran derivatives were evaluated for inhibiting the human 5-HT transporter (hSERT) as expressed in CHO cells using an antagonist radioligand assay (Tatsumi, M. et al. (1999), Eur. J. Pharmacol., 368: 277-283). […] Test compounds were assayed in three trials at […], and 0.94868 μM.
EXAMPLE 57: Human Serotonin Transporter (SERT, SLC6A4) Functional Antagonist Uptake Assay

SMILES: CNC(C)C(=O)c1ccc2occc2c1 (racemic) [rac-BK-5-MAPB, 1-(benzofuran-5-yl)-2-(methylamino)propan-1-one hydrochloride]
- Hill Coef. (5-HT1BR): 0.91

SMILES: CCC(NC)C(=O)c1ccc2occc2c1 (racemic) [rac-BK-5-MBPB, 1-(benzofuran-5-yl)-2-(methylamino) butan-1-one]
- Hill Coef. (5-HT1BR): 1.01

SMILES: CNC(C)C(=O)c1ccc2ccoc2c1 (racemic) [rac-BK-6-MAPB, 1-(benzofuran-6-yl)-2-(methylamino)propan-1-one hydrochloride]
- Hill Coef. (5-HT1BR): 0.99

SMILES: CNC(C)C(=O)c1ccc2occc2c1 (single isomer, unassigned; (+)) [(+)-Bk-5-MAPB, 1-(benzofuran-5-yl)-2-(methylamino) propan-1-one]
- [3H]-labeled 5-HT reuptake (serotonin uptake inhibition) (SERT [1]): rapidly increases extracellular serotonin by inhibiting reuptake
- Hill Coef. (5-HT1BR): 1.05
- [3H]-labeled 5-HT release (SERT [2]): rapidly increases extracellular serotonin by stimulating release

SMILES: CNC(C)C(=O)c1ccc2ccoc2c1 (single isomer, unassigned; (+)) [(+)-Bk-6-MAPB, 1-(benzofuran-6-yl)-2-(methylamino) propan-1-one]
- [3H]-labeled 5-HT reuptake (serotonin uptake inhibition) (SERT [1]): rapidly increases extracellular serotonin by inhibiting reuptake
- IC50 [3]: 110 µM
- Ki [3]: 51 µM
- [3H]-labeled 5-HT release (SERT [2]): rapidly increases extracellular serotonin by stimulating release

SMILES: CCC(NC)C(=O)c1ccc2occc2c1 (single isomer, unassigned; (-)) [(−)-BK-5-MBPB, 1-(benzofuran-5-yl)-2-(methylamino) butan-1-one]
- Hill Coef. (5-HT1BR): 1.6241

SMILES: CNC(C)C(=O)c1ccc2occc2c1 (single isomer, unassigned; (-)) [(−)-Bk-5-MAPB, 1-(benzofuran-5-yl)-2-(methylamino) propan-1-one]
- [3H]-labeled 5-HT reuptake (serotonin uptake inhibition) (SERT [1]): rapidly increases extracellular serotonin by inhibiting reuptake
- Hill Coef. (5-HT1BR): 1.5
- [3H]-labeled 5-HT release (SERT [2]): rapidly increases extracellular serotonin by stimulating release

SMILES: CNC(C)C(=O)c1ccc2ccoc2c1 (single isomer, unassigned; (-)) [(−)-Bk-6-MAPB, 1-(benzofuran-6-yl)-2-(methylamino) propan-1-one]
- [3H]-labeled 5-HT reuptake (serotonin uptake inhibition) (SERT [1]): rapidly increases extracellular serotonin by inhibiting reuptake
- Hill Coef. (5-HT1BR): 0.8339
- [3H]-labeled 5-HT release (SERT [2]): rapidly increases extracellular serotonin by stimulating release

SMILES: CCC(Cc1ccc2occc2c1)NC (stereo not shown) [RS-5-MBPB, 1-(benzofuran-5-yl)-N-methylbutan-2-amine]
- [3H]-labeled 5-HT reuptake (serotonin uptake inhibition) (SERT [1]): rapidly increases extracellular serotonin by inhibiting reuptake
- [3H]-labeled 5-HT release (SERT [2]): rapidly increases extracellular serotonin by stimulating release
